Read-outs that look alike come from different tables or passages of the source.
Experiments:
[1] = format: in vivo; details: female rats, observed 4 days
Experimental: An animal study was conducted with 30 female rats with weights ranging from 250-300g and acclimated for 5 days. All rats were dosed with intraperitoneal injections using 18 gauge needles. The rats were broken into 6 groups. A negative control (NC-1) dosed 5 rats with 5mL of normal saline solution. […] A positive control (PC-1) dosed 5 rats with 2.5 million EU in a 5mL saline solution. A second positive control (PC-2) was conducted dosing 5 rats with 5 million endotoxin units in a 5mL normal saline solution. Two experimental test groups were conducted.
The negative control samples also had no toxicity. Table 21. Results of animal study with CaSt dosing

[2] = Testing of various sources of LPS: detection of LPS after adding CaSt to spiked water; format: biochemical
Experimental: Therefore, for the methods described above, the activity of endotoxin was tested with various sources of endotoxin. Laboratory grown endotoxin is purified while natural endotoxin will be present with other substances such as proteins and phospholipids.
The laboratory grown endotoxin used in this experiment was supplied by Charles River Laboratories.
Natural airborne endotoxin was captured using an electret filter. Electret filters are produced from dielectric polymer fibers that develop an electrical charge when air flows past them, capturing the endotoxin along with other particles. The endotoxin was extracted from the filter by placing the filter in endotoxin free water for an extended period of time.
Two other natural sources of endotoxin were obtained from water samples in the surrounding environment. One source was a pool of sitting rain water and other being a small puddle on the side of the Raritan River. The sitting rain water (SRW) was purified via chlorination and 0.2 µm filter. The Raritan River Water (RRW) was not altered in anyway. The same testing procedure was conducted for all sources of endotoxin.
Table 11. Detection of LPS after adding CaSt to test tubes containing water spiked with LPS

[3] = Effect of storage (dwell time) on efficacy of pre-mixed CaSt suspensions, sonicated or vortexed; format: biochemical; details: 0.02 g CaSt; for EU After: 15 minutes
Experimental: Efficacy of pre-mixed CaSt suspensions (sonicated and vortexed) was tested, comparing efficacy of immediately prepared suspensions with suspensions having shelf life or dwell time of 90 min, 5 days, and 1 month prior to contact with endotoxin containing solutions.
10 mL SRW was then introduced to the sonicated CaSt mixture. It was then vortexed for 5 seconds to fully incorporate the sonicated CaSt. The mixture was then tested after 15 minutes of interaction to measure the percent decrease of endotoxin.
10 mL SRW was then introduced to the vortexed CaSt mixture. It was then vortexed for 5 seconds to fully incorporate the sonicated CaSt. The mixture was then tested after 15 minutes of interaction to measure the percent decrease of endotoxin.
These mixtures were then tested on the Charles River MCS at a dilution of 1:2000 after 15 minutes of interaction.
Testing of suspensions having shelf life or dwell time of 90 min, 5 days, and 1 month prior to contact with endotoxin containing solutions.
Test samples were prepared as described above, sonicated and vortexed, but were subjected to shelf life or dwell time of 90 min, 5 days, and 1 month prior to contact with endotoxin containing solution (SRW). After dwell time exposure, similarly to the immediate mixing test above, 10 mL SRW was then introduced to the sonicated or vortexed CaSt mixture. It was then vortexed for 5 seconds to fully incorporate the sonicated CaSt. The mixture was then tested after 15 minutes of interaction to measure the percent decrease of endotoxin. These mixtures were then tested on the Charles River MCS at a dilution of 1:2000 after 15 minutes of interaction.
*The 1 month shelf life sample was only tested at 0.04g CaSt and measured the percent removal after 15 minutes of interaction as well as 30 minutes after interaction.

[4] = Charles River Standard, 0.018 g Calcium Stearate, 8330 EU spiked
[5] = Charles River Standard, 0.05 g Calcium Stearate, 8330 EU spiked
[6] = Charles River Standard, 0.15 g Calcium Stearate, 8330 EU spiked
[7] = Charles River Standard, 0.25 g Calcium Stearate, 8330 EU spiked
[8] = Dust Filter Extraction Water, 0.01 g Calcium Stearate, 9280 EU spiked
[9] = Dust Filter Extraction Water, 0.25 g Calcium Stearate, 9280 EU spiked
[10] = RRW, 0.01 g Calcium Stearate, 4340 EU spiked
[11] = RRW, 0.1 g Calcium Stearate, 4340 EU spiked
[12] = RRW, 0.25 g Calcium Stearate, 4340 EU spiked
[13] = SRW, 0.01 g Calcium Stearate, 11100 EU spiked

With CCCCCCCCCCCCCCCCCC(=O)O [Calcium Stearate] the “Results (toxicity)” value ([1]; NC-2: 0.2 g Calcium Stearate in 5.0 mL normal saline, intraperitoneal, no endotoxin) was “No Toxicity Observed”, the “Results (toxicity)” value ([1]; T-1: 2,500,000 EU + 0.2g Calcium Stearate + normal saline (5.0 mL) dosed IP) was “No Toxicity Observed” and the “Results (toxicity)” value ([1]; T-1: 2,500,000 EU + 0.2g Calcium Stearate + normal saline (5.0 mL) dosed IP, listed as calcium stearate) was “no toxicity or adverse effects”. The “Results (toxicity)” value ([1]; T-2: 5,000,000 EU + 0.2g Calcium Stearate + normal saline (5.0 mL) dosed IP) was “No Toxicity Observed”, the “Results (toxicity)” value ([1]; T-2: 5,000,000 EU + 0.2g Calcium Stearate + normal saline (5.0 mL) dosed IP, listed as calcium stearate) was “no toxicity or adverse effects” and the “percent of endotoxin recovered” value ([2]; 0.1 grams of calcium stearate and higher, all sources of endotoxin) was “under 5%”. The “Endotoxin Detected (EU)” value ([2]; Charles River Standard, 0.007 g Calcium Stearate, 8330 EU spiked) was 3995 EU, the “Endotoxin Detected (EU)” value [2, 4] was 1487.5 EU and the “Percent of Endotoxin Detected” value [2, 4] was 17.9%. The “Endotoxin Detected (EU)” value ([2]; Charles River Standard, 0.028 g Calcium Stearate, 8330 EU spiked) was 235 EU, the “Endotoxin Detected (EU)” value [2, 5] was 190.5 EU and the “Percent of Endotoxin Detected” value [2, 5] was 2.3%. The “Endotoxin Detected (EU)” value [2, 6] was 86.5 EU, the “Percent of Endotoxin Detected” value [2, 6] was 1.0% and the “Endotoxin Detected (EU)” value [2, 7] was 38.5 EU. For the same compound, the “Percent of Endotoxin Detected” value [2, 7] was 0.5%, the “Endotoxin Detected (EU)” value [2, 8] was 3440 EU and the “Percent of Endotoxin Detected” value [2, 8] was 37.1%. For the same compound, the “Endotoxin Detected (EU)” value [2, 9] was 28.5 EU, the “Percent of Endotoxin Detected” value [2, 9] was 0.3% and the “Endotoxin Detected (EU)” value [2, 10] was 960 EU. The “Percent of Endotoxin Detected” value [2, 10] was 22.1%, the “Endotoxin Detected (EU)” value [2, 11] was 165 EU and the “Percent of Endotoxin Detected” value [2, 11] was 3.8%. For the same compound, the “Endotoxin Detected (EU)” value [2, 12] was 70 EU, the “Percent of Endotoxin Detected” value [2, 12] was 1.6% and the “Percent of Endotoxin Detected” value ([2]; RRW, 0.35 g Calcium Stearate, 4340 EU spiked) was 2.6%. The “Endotoxin Detected (EU)” value [2, 13] was 2780 EU, the “Percent of Endotoxin Detected” value [2, 13] was 25.0% and the “Percent of Endotoxin Detected” value ([2]; SRW, 0.25 g Calcium Stearate, 11100 EU spiked) was 1.0%. The “Average Percent Change” value ([3]; Sonicated, 5 Day dwell time) was 76%, the “Percent Endotoxin Removed” value ([3]; Sonicated, 5 Day dwell time) was 76% and the “EU After” value ([3]; Sonicated, 5 Day dwell time, EU Before 37,800) was 9,200 EU. For the same compound, the “Average Percent Change” value ([3]; Sonicated, 90 min dwell time) was 61%, the “EU After” value ([3]; Sonicated, 90 min dwell time, EU Before 36,100, listed as Aged Sonicated CaSt #1) was 15120 EU and the “EU After” value ([3]; Sonicated, 90 min dwell time, EU Before 36,100, listed as Aged Sonicated CaSt #2) was 12,960 EU. The “Percent Endotoxin Removed” value ([3]; Sonicated, 90 min dwell time, listed as Aged Sonicated CaSt #1) was 58%, the “Percent Endotoxin Removed” value ([3]; Sonicated, 90 min dwell time, listed as Aged Sonicated CaSt #2) was 64% and the “Average Percent Change” value ([3]; Sonicated, Immediate Mixing) was 74%. For the same compound, the “EU After” value ([3]; Sonicated, Immediate Mixing, EU Before 36,100, listed as Sonicated CaSt #1) was 8,960 EU, the “EU After” value ([3]; Sonicated, Immediate Mixing, EU Before 36,100, listed as Sonicated CaSt #2) was 10,240 EU and the “Percent Endotoxin Removed” value ([3]; Sonicated, Immediate Mixing, listed as Sonicated CaSt #1) was 75%. For the same compound, the “Percent Endotoxin Removed” value ([3]; Sonicated, Immediate Mixing, listed as Sonicated CaSt #2) was 72%, the “Average Percent Change” value ([3]; Vortexed, 5 Day dwell time) was 64% and the “EU After” value ([3]; Vortexed, 5 Day dwell time, EU Before 37,800, listed as Aged Vortexed CaSt #3) was 15,120 EU. The “EU After” value ([3]; Vortexed, 5 Day dwell time, EU Before 37,800, listed as Aged Vortexed CaSt #4) was 12,160 EU.
